In patent US9890118B2, “Prostamides for the treatment of glaucoma and related diseases” (Allergan, Inc., priority 2004, dated 2018):
Marks after values point to notes of the source that are not given here.

Tested on: dogs (Beagle)
Assay: Intraocular pressure studies by pneumatonometry in conscious dogs
Format: in vivo
Details: topical 25 μL drop, 0.03% drug in 0.1% polysorbate 80:10 mM TRIS, one eye; for Change in Intraocular Pressure (IOP), 0 hrs: 0 hrs (just before drug administration); for Change in Intraocular Pressure (IOP), 2 hrs: 2 hrs after dosing; for Change in Intraocular Pressure (IOP), 4 hrs: 4 hrs after dosing; for Change in Intraocular Pressure (IOP), 6 hrs: 6 hrs after dosing; for Change in Intraocular Pressure (IOP), 24 hrs: 24 hrs after dosing
Description: Intraocular pressure studies were carried out for compounds 1-3 by pneumatonometry in dogs (Beagle) of both sexes (10-15 kg). The animals remained conscious throughout the study and were gently restrained by hand. Drugs were administered topically to one eye as a 25 μL volume drop comprising 0.03% drug, 0.1% polysorbate 80:10 mM TRIS, the other eye received 0.1% polysorbate 80:10 mM TRIS. Proparacaine (0.1%) was used for corneal anesthesia during tonometry. Intraocular pressure was determined just before drug administration and at 2, 4 and 6 hours thereafter on each day of the 5 day study. […] Drug was administered immediately after the first IOP reading.

Structure (SMILES) | Change in Intraocular Pressure (IOP), 0 hrs | Change in Intraocular Pressure (IOP), 2 hrs | Change in Intraocular Pressure (IOP), 4 hrs | Change in Intraocular Pressure (IOP), 6 hrs | Change in Intraocular Pressure (IOP), 24 hrs
CCCCC[C@H](O)/C=C/[C@@H]1[C@@H](C/C=C\CCCC(=O)NCCc2ccc(O)c(O)c2)[C@@H](O)C[C@H]1O [Compound 2, (Z)-7-[(1R,2R,3R,5S)-3,5-Dihydroxy-2-((E)-(S)-3-hydroxy-oct-1-enyl)-cyclopentyl]-hept-5-enoic acid [2-(3,4-dihydroxy-phenyl)-ethyl]-amide] | 0 | −3.8* | −3.2** | −3.2** | −1.1*
CCCCC[C@H](O)/C=C/[C@@H]1[C@@H](C/C=C\CCCC(=O)NCCc2c[nH]c3ccc(O)cc23)[C@@H](O)C[C@H]1O [Compound 3, (Z)-7-[(1R,2R,3R,5S)-3,5-Dihydroxy-2-((E)-(S)-3-hydroxy-oct-1-enyl)-cyclopentyl]-hept-5-enoic acid [2-(5-hydroxy-1H-indol-3-yl)-ethyl]-amide] | 0 | −3.2* | −5.8* | −7.6** | −2.2
CCCCC[C@H](O)/C=C/[C@@H]1[C@@H](C/C=C\CCCC(=O)NCCc2ccc(OC(C)=O)c(OC(C)=O)c2)[C@@H](O)C[C@H]1O [Compound 1, acetic acid 2-acetoxy-5-(2-{(Z)-7-[(1R,2R,3R,5S)-3,5-dihydroxy-2-((E)-(S)-3-hydroxy-oct-1-enyl)-cyclopenyl]-hept-5-enoylamino}-ethyl)-phenyl ester] | 0 | −4.4** | −3.4** | −3.1** | −1.4*
